In brackets after ≈: the same amount, converted by molar mass. Read-outs that look alike come from different tables or passages of the source.
Experiments:
[1] = physchem; details: 25 °C, thermodynamic from solid
[2] = Oral bioavailability PK in dog; type: in vivo; details: dog (Beagle), oral gavage, solution vehicle 5% ethanol, 20% propylene glycol, 75% water; based on exposure of Intermediate 5 in plasma
[3] = 0.1N HCl, 1.0% DMSO, 24-hour incubation at ambient temperature, maximum theoretical 100 μM, first value of the cell
[4] = 1×PBS buffer (pH 7.4), 1.0% DMSO, 24-hour incubation at ambient temperature, maximum theoretical 100 μM, second value of the cell

Dog F % (solution) [2] [%]	SMILES	pH 2 solubility [3] [μM]	pH 7 solubility [4] [μM]	solubility ([1]; fassif) [µg/mL]	pH 2 solubility (pH 2)	pH 7 solubility (pH 7.4)	solubility ([1]; fessif) [µg/mL]
	CC(C)(C#Cc1ccc(-c2ccc(Cl)c3c(N(C(=O)OCCN(CC(=O)O)C(=O)OCOP(=O)(O)O)S(C)(=O)=O)nn(CC(F)(F)F)c23)c([C@H](Cc2cc(F)cc(F)c2)NC(=O)Cn2nc(C(F)(F)F)c3c2C(F)(F)[C@@H]2C[C@H]32)n1)S(C)(=O)=O [Compound 134]	1	100	2640 (≈ 2080 µM)			
	CC(C)(C#Cc1ccc(-c2ccc(Cl)c3c(N(C(=O)OCCN(CCC(=O)O)C(=O)OCOP(=O)(O)O)S(C)(=O)=O)nn(CC(F)(F)F)c23)c([C@H](Cc2cc(F)cc(F)c2)NC(=O)Cn2nc(C(F)(F)F)c3c2C(F)(F)[C@@H]2C[C@H]32)n1)S(C)(=O)=O [Compound 135, 3-((2-(((4-chloro-7-(2-((S)-1-(2-((3bS,4aR)-5,5-difluoro-3-(trifluoromethyl)-3b,4,4a,5-tetrahydro-1H-cyclopropa[3,4]cyclopenta[1,2-c]pyrazol-1-yl)acetamido)-2-(3,5-difluorophenyl)ethyl)-6-(3-methyl-3-(methylsulfonyl)but-1-yn-1-yl)pyridin-3-yl)-1-(2,2,2-trifluoroethyl)-1H-indazol-3-yl)(methylsulfonyl)carbamoyl)oxy)ethyl)(((phosphonooxy)methoxy)carbonyl)amino)propa noic acid]	1	100	1290 (≈ 1010 µM)			
	CC(C)(C#Cc1ccc(-c2ccc(Cl)c3c(N(C(=O)O[C@H](CNC(=O)OCOP(=O)(O)O)CC(=O)O)S(C)(=O)=O)nn(CC(F)(F)F)c23)c([C@H](Cc2cc(F)cc(F)c2)NC(=O)Cn2nc(C(F)(F)F)c3c2C(F)(F)[C@@H]2C[C@H]32)n1)S(C)(=O)=O [Compound 136, (S)-3-(((4-chloro-7-(2-((S)-1-(2-((3bS,4aR)-5,5-difluoro-3-(trifluoromethyl)-3b,4,4a,5-tetrahydro-1H-cyclopropa[3,4]cyclopenta[1,2-c]pyrazol-1-yl)acetamido)-2-(3,5-difluorophenyl)ethyl)-6-(3-methyl-3-(methylsulfonyl)but-1-yn-1-yl)pyridin-3-yl)-1-(2,2,2-trifluoroethyl)-1H-indazol-3-yl)(methylsulfonyl)carbamoyl)oxy)-4-((((phosphonooxy)methoxy)carbonyl)amino)butanoic acid]			1490 (≈ 1180 µM)	3/57 μM	3/57 μM	2910 (≈ 2300 µM)
	CC(C)(C#Cc1ccc(-c2ccc(Cl)c3c(N(C(=O)OCCNC(=O)OCOP(=O)(O)O)S(C)(=O)=O)nn(CC(F)(F)F)c23)c([C@H](Cc2cc(F)cc(F)c2)NC(=O)Cn2nc(C(F)(F)F)c3c2C(F)(F)[C@@H]2C[C@H]32)n1)S(C)(=O)=O [Compound 137, 2-((((phosphonooxy)methoxy)carbonyl)amino)ethyl (4-chloro-7-(2-((S)-1-(2-((3bS,4aR)-5,5-difluoro-3-(trifluoromethyl)-3b,4,4a,5-tetrahydro-1H-cyclopropa[3,4]cyclopenta[1,2-c]pyrazol-1-yl)acetamido)-2-(3,5-difluorophenyl)ethyl)-6-(3-methyl-3-(methylsulfonyl)but-1-yn-1-yl)pyridin-3-yl)-1-(2,2,2-trifluoroethyl)-1H-indazol-3-yl)(methylsulfonyl)carbamate]	1	85	950 (≈ 786 µM)			
16	CC(C)(C#Cc1ccc(-c2ccc(Cl)c3c(NS(C)(=O)=O)nn(CC(F)(F)F)c23)c([C@H](Cc2cc(F)cc(F)c2)NC(=O)Cn2nc(C(F)(F)F)c3c2C(F)(F)[C@@H]2C[C@H]32)n1)S(C)(=O)=O [Intermediate 5, N—((S)-1-(3-(4-chloro-3-(methylsulfonamido)-1-(2,2,2-trifluoroethyl)-1H-indazol-7-yl)-6-(3-methyl-3-(methylsulfonyl)but-1-yn-1-yl)pyridin-2-yl)-2-(3,5-difluorophenyl)ethyl)-2-((3bS,4aR)-5,5-difluoro-3-(trifluoromethyl)-3b,4,4a,5-tetrahydro-1H-cyclopropa[3,4]cyclopenta[1,2-c]pyrazol-1-yl)acetamide, reference compound]	0.11	0.32				
